For experiment [1], the system named is MDA-MB-231. The following applies: incubation time: 72 h. The method in brief: (§1)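 For the IC50 and drug sensitivity score, logistic dose–response curves were fitted in Dotmatics Studies. The score compares curve area with a reference area and is normalised by log of top response. Input data were CellTiter-Blue fluorescence readings from MDA-MB-231 cells, transfected a day earlier with BRCA1 or non-targeting control siRNA, that had spent 72 h at 37 °C and 5% CO2 at 4000 cells per well in 384-well plates with compounds at 5 concentrations.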

The subject of experiment [2] is MDA-MB-231. As to the kind of experiment: drug sensitivity score (DSS); higher = more sensitive; extreme values may be limits of the assay. The following applies: incubation time: 72 h. The procedure, abridged: as §1
Where [3] appears, read: siRNA: siControl (non-targeting).

Where only a bound is given, the exact number is not on record here.

Regarding `COc1cc2c(N3CCN(C(=O)Nc4ccc(OC(C)C)cc4)CC3)ncnc2cc1OCCCN1CCCCC1` [Tandutinib], the “IC50 of cell viability” value was > 4.17 µM in the experiment with MDA-MB-231 [1] (siRNA: siBRCA1) and 1.13 µM with MDA-MB-231 [1] (setting [3]). The drug sensitivity score stood at 0.708 with MDA-MB-231 [2] (siRNA: siBRCA1) and 3.18 in the experiment on MDA-MB-231 [2] (setting [3]).
For the compound `C=CCNC1=C2C[C@@H](C)C[C@H](OC)[C@H](O)[C@@H](C)/C=C(\C)[C@H](OC(N)=O)[C@@H](OC)/C=C\C=C(/C)C(=O)NC(=CC1=O)C2=O` [Tanespimycin], the “IC50 of cell viability” value stood at 0.377 µM with MDA-MB-231 [1] (siRNA: siBRCA1) and 0.233 µM in the experiment on MDA-MB-231 [1] (setting [3]). Besides, the results for the drug sensitivity score in the experiment with MDA-MB-231 [2] (siRNA: siBRCA1) and in the experiment with MDA-MB-231 [2] (setting [3]) were 15.1 and 17.3, respectively.
`C[C@@H](C(=O)O)c1ccc(-c2ccccc2)c(F)c1` [Tarenflurbil]: the “IC50 of cell viability” value with MDA-MB-231 [1] (siRNA: siBRCA1) and with MDA-MB-231 [1] (setting [3]) was > 4.17 µM in each case. The drug sensitivity score in the experiment with MDA-MB-231 [2] (siRNA: siBRCA1) and in the experiment on MDA-MB-231 [2] (setting [3]) was 0 throughout.
Consider `Cn1nnc2c(C(N)=O)ncn2c1=O` [Temozolomide], for which the “IC50 of cell viability” value with MDA-MB-231 [1] (siRNA: siBRCA1) and with MDA-MB-231 [1] (setting [3]) was > 4.17 µM each time. Moreover, the drug sensitivity score in the experiment with MDA-MB-231 [2] (siRNA: siBRCA1) and with MDA-MB-231 [2] (setting [3]) was 0 throughout.
In the case of `CO[C@H]1C[C@@H]2CC[C@@H](C)[C@@](O)(O2)C(=O)C(=O)N2CCCC[C@H]2C(=O)O[C@H]([C@H](C)C[C@@H]2CC[C@@H](OC(=O)C(C)(CO)CO)[C@H](OC)C2)CC(=O)[C@H](C)/C=C(\C)[C@@H](O)[C@@H](OC)C(=O)[C@H](C)C[C@H](C)/C=C/C=C/C=C/1C` [Temsirolimus], the figures for the “IC50 of cell viability” value in the experiment with MDA-MB-231 [1] (siRNA: siBRCA1) and in the experiment on MDA-MB-231 [1] (setting [3]) were 0.0039 µM and 0.00402 µM, respectively. In addition, the figures for the drug sensitivity score in the experiment on MDA-MB-231 [2] (siRNA: siBRCA1) and in the experiment with MDA-MB-231 [2] (setting [3]) were 14.6 and 14.4, respectively.
Regarding `COc1cc([C@@H]2c3cc4c(cc3[C@@H](O[C@@H]3O[C@@H]5CO[C@@H](c6cccs6)O[C@H]5[C@H](O)[C@H]3O)[C@H]3COC(=O)[C@H]23)OCO4)cc(OC)c1O` [Teniposide], the “IC50 of cell viability” value was found to be 2.84 µM in the experiment with MDA-MB-231 [1] (siRNA: siBRCA1) and 1.98 µM in the experiment with MDA-MB-231 [1] (setting [3]). Moreover, the results for the drug sensitivity score in the experiment on MDA-MB-231 [2] (siRNA: siBRCA1) and in the experiment with MDA-MB-231 [2] (setting [3]) were 5.24 and 7.09, respectively.
For `O=C1CCC(N2C(=O)c3ccccc3C2=O)C(=O)N1` (configuration not stated) [Thalidomide], the “IC50 of cell viability” value in the experiment on MDA-MB-231 [1] (siRNA: siBRCA1) and in the experiment with MDA-MB-231 [1] (setting [3]) was > 4.17 µM in each case. In addition, the drug sensitivity score with MDA-MB-231 [2] (siRNA: siBRCA1) and in the experiment with MDA-MB-231 [2] (setting [3]) was 0 throughout.
In the case of `Nc1nc2[nH]cnc2c(=S)[nH]1` [Thioguanine], the “IC50 of cell viability” value with MDA-MB-231 [1] (siRNA: siBRCA1) was 1.85 µM; in the experiment with MDA-MB-231 [1] (setting [3]) it was > 4.17 µM. In addition, the drug sensitivity score with MDA-MB-231 [2] (siRNA: siBRCA1) amounted to 3.71; in the experiment with MDA-MB-231 [2] (setting [3]), 0.
Regarding `S=P(N1CC1)(N1CC1)N1CC1` [Thiotepa], the “IC50 of cell viability” value in the experiment on MDA-MB-231 [1] (siRNA: siBRCA1) and in the experiment on MDA-MB-231 [1] (setting [3]) was > 4.17 µM throughout. For the same compound, the drug sensitivity score in the experiment with MDA-MB-231 [2] (siRNA: siBRCA1) and in the experiment on MDA-MB-231 [2] (setting [3]) was 0 each time.
For `Cn1cncc1[C@@](N)(c1ccc(Cl)cc1)c1ccc2c(c1)c(-c1cccc(Cl)c1)cc(=O)n2C` [Tipifarnib], the “IC50 of cell viability” value in the experiment with MDA-MB-231 [1] (siRNA: siBRCA1) turned out to be 0.0794 µM; with MDA-MB-231 [1] (setting [3]), 0.0305 µM. Further, the results for the drug sensitivity score with MDA-MB-231 [2] (siRNA: siBRCA1) and in the experiment on MDA-MB-231 [2] (setting [3]) were 12.8 and 14.1, respectively.
For the compound `COc1cc2nccc(Oc3ccc(NC(=O)Nc4cc(C)on4)c(Cl)c3)c2cc1OC` [Tivozanib], the “IC50 of cell viability” value was > 4.17 µM in the experiment on MDA-MB-231 [1] (siRNA: siBRCA1) and 2.46 µM with MDA-MB-231 [1] (setting [3]). Besides, the drug sensitivity score in the experiment on MDA-MB-231 [2] (siRNA: siBRCA1) was determined as 3.36; in the experiment with MDA-MB-231 [2] (setting [3]) it was 2.37.
As for `CC[C@@]1(O)C(=O)OCc2c1cc1n(c2=O)Cc2cc3c(CN(C)C)c(O)ccc3nc2-1` [Topotecan], the “IC50 of cell viability” value with MDA-MB-231 [1] (siRNA: siBRCA1) was determined as 0.661 µM; in the experiment on MDA-MB-231 [1] (setting [3]) it was 0.766 µM. Also, the drug sensitivity score with MDA-MB-231 [2] (siRNA: siBRCA1) was 10.4; with MDA-MB-231 [2] (setting [3]) it was 10.6.
For `CC1=C(/C=C/C(C)=C/C=C/C(C)=C/C(=O)O)C(C)(C)CCC1` [Tretinoin], the “IC50 of cell viability” value in the experiment with MDA-MB-231 [1] (siRNA: siBRCA1) and with MDA-MB-231 [1] (setting [3]) was > 4.17 µM throughout. Besides, the drug sensitivity score in the experiment with MDA-MB-231 [2] (siRNA: siBRCA1) was found to be 0.0479; with MDA-MB-231 [2] (setting [3]), 0.
On to `C1CN1c1nc(N2CC2)nc(N2CC2)n1` [Triethylenemelamine], for which the “IC50 of cell viability” value with MDA-MB-231 [1] (siRNA: siBRCA1) and in the experiment with MDA-MB-231 [1] (setting [3]) was > 4.17 µM throughout. Moreover, the drug sensitivity score in the experiment with MDA-MB-231 [2] (siRNA: siBRCA1) and with MDA-MB-231 [2] (setting [3]) was 0 each time.
On to `CN[C@@H]1C[C@H]2O[C@@](C)([C@@H]1OC)n1c3ccccc3c3c4c(c5c6ccccc6n2c5c31)C(=O)N[C@H]4O` [UCN-01], for which the results for the “IC50 of cell viability” value with MDA-MB-231 [1] (siRNA: siBRCA1) and with MDA-MB-231 [1] (setting [3]) were 0.0668 µM and 0.0289 µM, respectively. For the same compound, the drug sensitivity score with MDA-MB-231 [2] (siRNA: siBRCA1) was found to be 23.4; in the experiment with MDA-MB-231 [2] (setting [3]), 27.8.
For the compound `Oc1ncc(N(CCCl)CCCl)c(O)n1` [Uracil mustard], the “IC50 of cell viability” value in the experiment with MDA-MB-231 [1] (siRNA: siBRCA1) and with MDA-MB-231 [1] (setting [3]) was > 4.17 µM in each case. Also, the drug sensitivity score in the experiment with MDA-MB-231 [2] (siRNA: siBRCA1) and in the experiment with MDA-MB-231 [2] (setting [3]) was 0 throughout.
`CCCCC(=O)OCC(=O)[C@]1(O)Cc2c(O)c3c(c(O)c2[C@@H](O[C@H]2C[C@H](NC(=O)C(F)(F)F)[C@H](O)[C@H](C)O2)C1)C(=O)c1c(OC)cccc1C3=O` [Valrubicin]: the “IC50 of cell viability” value worked out at 0.729 µM in the experiment with MDA-MB-231 [1] (siRNA: siBRCA1) and 0.273 µM in the experiment on MDA-MB-231 [1] (setting [3]). Further, the drug sensitivity score in the experiment with MDA-MB-231 [2] (siRNA: siBRCA1) stood at 9.56; in the experiment with MDA-MB-231 [2] (setting [3]), 12.5.
Regarding `COc1cc2/c(=N/c3ccc(Br)cc3F)nc[nH]c2cc1OCC1CCN(C)CC1` [Vandetanib], the “IC50 of cell viability” value came out at 1.85 µM in the experiment on MDA-MB-231 [1] (siRNA: siBRCA1) and 1.86 µM in the experiment with MDA-MB-231 [1] (setting [3]). Besides, the results for the drug sensitivity score in the experiment with MDA-MB-231 [2] (siRNA: siBRCA1) and in the experiment on MDA-MB-231 [2] (setting [3]) were 7.31 and 7.25, respectively.
As to `Clc1ccc(Nc2nnc(Cc3ccncc3)c3ccccc23)cc1` [Vatalanib], the “IC50 of cell viability” value with MDA-MB-231 [1] (siRNA: siBRCA1) and with MDA-MB-231 [1] (setting [3]) was > 4.17 µM in each case. Further, the drug sensitivity score in the experiment on MDA-MB-231 [2] (siRNA: siBRCA1) and in the experiment with MDA-MB-231 [2] (setting [3]) was 0 in each case.
Regarding `C[C@]1(c2nc3c(C(N)=O)cccc3[nH]2)CCCN1` [Veliparib], the “IC50 of cell viability” value in the experiment with MDA-MB-231 [1] (siRNA: siBRCA1) and with MDA-MB-231 [1] (setting [3]) was > 4.17 µM throughout. Moreover, the drug sensitivity score with MDA-MB-231 [2] (siRNA: siBRCA1) and in the experiment on MDA-MB-231 [2] (setting [3]) was 0 each time.
As to `CC[C@]1(O)C[C@@H]2CN(CCc3c([nH]c4ccccc34)[C@@](C(=O)OC)(c3cc4c(cc3OC)N(C)[C@H]3[C@@](O)(C(=O)OC)[C@H](OC(C)=O)[C@]5(CC)C=CCN6CC[C@]43[C@@H]65)C2)C1` [Vinblastine], the “IC50 of cell viability” value in the experiment with MDA-MB-231 [1] (siRNA: siBRCA1) came out at 0.00572 µM; in the experiment with MDA-MB-231 [1] (setting [3]), 0.00565 µM. The results for the drug sensitivity score with MDA-MB-231 [2] (siRNA: siBRCA1) and with MDA-MB-231 [2] (setting [3]) were 31.4 and 30.9, respectively.
For `CC[C@]1(O)C[C@H]2CN(CCc3c([nH]c4ccccc34)[C@@](C(=O)OC)(c3cc4c(cc3OC)N(C=O)[C@H]3[C@@](O)(C(=O)OC)[C@H](OC(C)=O)[C@]5(CC)C=CCN6CC[C@]43[C@@H]65)C2)C1` [Vincristine], the “IC50 of cell viability” value was 0.00532 µM in the experiment on MDA-MB-231 [1] (siRNA: siBRCA1) and 0.00355 µM in the experiment on MDA-MB-231 [1] (setting [3]). For the same compound, the drug sensitivity score in the experiment with MDA-MB-231 [2] (siRNA: siBRCA1) amounted to 31.3; with MDA-MB-231 [2] (setting [3]) it was 32.2.
For `CCC1=C[C@@H]2CN(C1)Cc1c([nH]c3ccccc13)[C@@](C(=O)OC)(c1cc3c(cc1OC)N(C)[C@H]1[C@@](O)(C(=O)OC)[C@H](OC(C)=O)[C@]4(CC)C=CCN5CC[C@]31[C@@H]54)C2` [Vinorelbine], in that order: 0.031 µM, 0.0236 µM, 23.5 and 24.

The values above are taken from the supplement of paper PMC4649846.
